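Where inhibition never reached the appropriate level, the endpoint shown equals the highest concentration tested. Otherwise, values were interpolated linearly from a five-concentration, 48-hour dose response in 96-well plates. Abbreviation: GI50, concentration required for 50% inhibition of growth.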 Calls of active or inactive are those of the source. No stated cut-off is given here; in the data, active = GI50 up to about 1.1 µM and inactive = higher.
Legend:
Assay in all cases: DTP human tumour cell line panel, 48 h
786-0 = system: 786-0
A498 = system: A498
A549 = system: A549
ACHN = system: ACHN
CAKI-1 = system: CAKI-1
CCRF-CEM = system: CCRF-CEM
COLO 205 = system: COLO 205
DLD-1 = system: DLD-1
DMS-114 = system: DMS-114
DMS-273 = system: DMS-273
EKVX = system: EKVX
HCC 2998 = system: HCC 2998
HCT-116 = system: HCT-116
HCT-15 = system: HCT-15
HL-60 = system: HL-60
HOP-18 = system: HOP-18
HOP-62 = system: HOP-62
HOP-92 = system: HOP-92
HT-29 = system: HT-29
IGROV-1 = system: IGROV-1
K562 = system: K562
KM-20L2 = system: KM-20L2
KM12 = system: KM12
LOX IMVI = system: LOX IMVI
LXFL 529 = system: LXFL 529
M14 = system: M14
MOLT-4 = system: MOLT-4
Malme-3M = system: Malme-3M
NCI-H226 = system: NCI-H226
NCI-H23 = system: NCI-H23
NCI-H460 = system: NCI-H460
NCI-H522 = system: NCI-H522
OVCAR-3 = system: OVCAR-3
OVCAR-4 = system: OVCAR-4
OVCAR-5 = system: OVCAR-5
OVCAR-8 = system: OVCAR-8
RPMI-8226 = system: RPMI-8226
RXF 393 = system: RXF 393
SF-268 = system: SF-268
SF-295 = system: SF-295
SF-539 = system: SF-539
SK-MEL-28 = system: SK-MEL-28
SK-MEL-2 = system: SK-MEL-2
SK-MEL-5 = system: SK-MEL-5
SK-OV-3 = system: SK-OV-3
SN12C = system: SN12C
SNB-19 = system: SNB-19
SNB-75 = system: SNB-75
SNB-78 = system: SNB-78
SR = system: SR
TK-10 = system: TK-10
U-251 = system: U-251
UACC-257 = system: UACC-257
UACC-62 = system: UACC-62
UO-31 = system: UO-31
XF498 = system: XF498
M19-MEL = system: M19-MEL
SW-620 = system: SW-620

Measured: GI50

C/C(CC(=O)Nc1ccc(C)c(C)c1)=N\N(c1ccccc1)c1ccccc1
49 µM: HCT-15
inactive: 786-0 99.1 µM | A498 > 100 µM | A549 > 100 µM | ACHN 58.9 µM | CAKI-1 80.7 µM | CCRF-CEM 26.4 µM | COLO 205 18.3 µM | DLD-1 55.7 µM | DMS-114 18.3 µM | DMS-273 17.6 µM | EKVX > 100 µM | HCC 2998 > 100 µM | HCT-116 43.4 µM | HL-60 88.1 µM | HOP-18 > 100 µM | HOP-62 > 100 µM | HOP-92 > 100 µM | HT-29 > 100 µM | IGROV-1 64.4 µM | K562 26.2 µM | KM-20L2 13.3 µM | KM12 > 100 µM | LOX IMVI 36.1 µM | LXFL 529 64.1 µM | M14 > 100 µM | MOLT-4 62.5 µM | Malme-3M > 100 µM | NCI-H226 > 100 µM | NCI-H23 > 100 µM | NCI-H460 > 100 µM | NCI-H522 15.2 µM | OVCAR-3 > 100 µM | OVCAR-4 43.4 µM | OVCAR-5 > 100 µM | OVCAR-8 > 100 µM | RPMI-8226 47.1 µM | RXF 393 63.2 µM | SF-268 58.7 µM | SF-295 > 100 µM | SF-539 > 100 µM | SK-MEL-28 68.1 µM | SK-MEL-2 55.6 µM | SK-MEL-5 62.7 µM | SK-OV-3 > 100 µM | SN12C 42.9 µM | SNB-19 > 100 µM | SNB-75 65.9 µM | SNB-78 > 100 µM | SR 22.4 µM | TK-10 > 100 µM | U-251 15.2 µM | UACC-257 > 100 µM | UACC-62 21.6 µM | UO-31 46 µM | XF498 > 100 µM

CN(C)C(=C1C(Br)=C(Br)C(Br)=C1Br)N(C)C
inactive: 786-0 > 100 µM | A549 > 100 µM | ACHN > 100 µM | CAKI-1 > 100 µM | CCRF-CEM 26.3 µM | COLO 205 > 100 µM | DLD-1 > 100 µM | DMS-114 > 100 µM | DMS-273 > 100 µM | EKVX > 100 µM | HCC 2998 > 100 µM | HL-60 46.3 µM | HOP-18 > 100 µM | HOP-62 > 100 µM | HOP-92 > 100 µM | HT-29 > 100 µM | IGROV-1 > 100 µM | K562 30.4 µM | KM-20L2 > 100 µM | KM12 > 100 µM | LOX IMVI 21.5 µM | LXFL 529 75 µM | M14 > 100 µM | M19-MEL > 100 µM | MOLT-4 > 100 µM | Malme-3M > 100 µM | NCI-H23 > 100 µM | NCI-H460 > 100 µM | NCI-H522 17.5 µM | OVCAR-3 > 100 µM | OVCAR-4 > 100 µM | OVCAR-5 > 100 µM | OVCAR-8 > 100 µM | RPMI-8226 22.7 µM | RXF 393 > 100 µM | SF-268 > 100 µM | SF-295 > 100 µM | SF-539 > 100 µM | SK-MEL-28 > 100 µM | SK-MEL-2 > 100 µM | SK-MEL-5 > 100 µM | SK-OV-3 > 100 µM | SN12C > 100 µM | SNB-75 38.6 µM | SW-620 83.8 µM | TK-10 > 100 µM | U-251 > 100 µM | UACC-257 > 100 µM | UACC-62 > 100 µM | UO-31 > 100 µM
> 100 µM: HCT-15

CC(=O)OC1COC(n2c(=S)n(-c3ccccc3)c(=O)c3cc(Br)ccc32)C(OC(C)=O)C1OC(C)=O (configuration not stated)
inactive: 786-0 34.1 µM | A498 49.4 µM | A549 40.4 µM | ACHN > 100 µM | CAKI-1 42 µM | CCRF-CEM > 100 µM | COLO 205 > 100 µM | DMS-114 51.6 µM | DMS-273 45.8 µM | EKVX > 100 µM | HCC 2998 > 100 µM | HCT-116 23.9 µM | HL-60 > 100 µM | HOP-18 > 100 µM | HOP-62 19.5 µM | HOP-92 19.5 µM | HT-29 72.1 µM | IGROV-1 45.1 µM | K562 > 100 µM | KM-20L2 > 100 µM | KM12 > 100 µM | LOX IMVI 57.1 µM | LXFL 529 27 µM | M14 30.8 µM | M19-MEL 53.6 µM | MOLT-4 > 100 µM | Malme-3M 35.4 µM | NCI-H226 83.4 µM | NCI-H23 43.7 µM | NCI-H460 65.2 µM | NCI-H522 45.8 µM | OVCAR-3 73.3 µM | OVCAR-4 7.5 µM | OVCAR-5 > 100 µM | OVCAR-8 36.1 µM | RPMI-8226 33.9 µM | RXF 393 22.2 µM | SF-268 29.1 µM | SF-295 27.5 µM | SF-539 22.4 µM | SK-MEL-28 37.8 µM | SK-MEL-2 45.1 µM | SK-MEL-5 54.8 µM | SK-OV-3 32.8 µM | SN12C 71.1 µM | SNB-19 25.2 µM | SNB-75 7.11 µM | SNB-78 29 µM | SW-620 > 100 µM | U-251 14.6 µM | UACC-257 55.2 µM | UACC-62 37.3 µM | UO-31 > 100 µM | XF498 19.3 µM
> 100 µM: HCT-15

From ChEMBL document CHEMBL1201862, “PubChem BioAssay data set” (2004)
